Data reported in ChEMBL document CHEMBL1134637, “Fluorescent tricyclic analogues of acyclovir and ganciclovir. A structure-antiviral activity study” (2001).
Values after ≈ are worked out from the molar mass of the structure shown.

Columns and labels:
Format in all cases: functional
Human alphaherpesvirus 1 [1] = assay: Minimal inhibitory concentration to reduce virus-induced cytopathicity against McIntyre strain of human Herpes Simplex Virus-1
Human alphaherpesvirus 1 [2] = assay: Minimal inhibitory concentration to reduce virus-induced cytopathicity against KOS strain of human Herpes Simplex Virus -1
[3] = Minimal cytotoxic concentration (MCC) to cause a microscopically detectable change in normal cell morphology
Human alphaherpesvirus 1 [4] = assay: Minimal inhibitory concentration to reduce virus-induced cytopathicity against TK-/TK+ HSV-1 of VMW 837
Human alphaherpesvirus 1 [5] = assay: Minimal inhibitory concentration to reduce virus-induced cytopathicity against Thymidine kinase deficient(TK-) HSV-1 of Acyclovir
[6] = system: Vesicular stomatitis virus; assay: Minimal inhibitory concentration to reduce virus-induced cytopathicity against VSV
Human alphaherpesvirus 2 [7] = assay: Minimal inhibitory concentration to reduce virus-induced cytopathicity against 196 strain of human Herpes Simplex Virus-2
Human alphaherpesvirus 2 [8] = assay: Minimal inhibitory concentration to reduce virus-induced cytopathicity against G strain of human Herpes Simplex Virus-2
Human alphaherpesvirus 1 [9] = assay: Minimal inhibitory concentration to reduce virus-induced cytopathicity against F strain of human Herpes Simplex Virus-1 (HSV-1)
Vaccinia virus = assay: Minimal inhibitory concentration to reduce virus-induced cytopathicity against VV; settings: Orthopoxvirus vaccinia
Human alphaherpesvirus 2 [10] = assay: Minimal inhibitory concentration to reduce virus-induced cytopathicity against Lyons strain of human Herpes Simplex Virus-2
[11] = Human alphaherpesvirus 2, read-out: MIC
[12] = Human alphaherpesvirus 1, read-out: MIC

Row | Compound | MIC (Human alphaherpesvirus 1 [1]) [µg/mL] | MIC (Human alphaherpesvirus 1 [2]) [µg/mL] | MCC [3] [µg/mL] | MIC (Human alphaherpesvirus 1 [4]) [µg/mL] | MIC (Human alphaherpesvirus 1 [5]) [µg/mL] | MIC [6] [µg/mL] | MIC (Human alphaherpesvirus 2 [7]) [µg/mL] | MIC (Human alphaherpesvirus 2 [8]; [11]) [µg/mL] | MIC (Human alphaherpesvirus 1 [9]; [12]) [µg/mL] | MIC (Vaccinia virus) [µg/mL] | MIC (Human alphaherpesvirus 2 [10]) [µg/mL] | MIC (Human alphaherpesvirus 2 [8]) | MIC (Human alphaherpesvirus 1 [9]) [pug ml-1]
1 | OCCOCn1cnc2c(O)n3c(CO)cnc3nc21 | > 3.2 | > 3.2 | > 16 | > 3.2 | > 3.2 | > 3.2 | > 3.2 | > 3.2 | > 3.2 | > 3.2 | > 3.2 | – | –
2 | O=[N+]([O-])c1ccc(-c2cn3c(O)c4ncn(COCCO)c4nc3n2)cc1 | 16 (≈ 43.2 µM) | 9.6 (≈ 25.9 µM) | 80 | > 16 | > 16 | > 16 | > 16 | 9.6 (≈ 25.9 µM) | 16 (≈ 43.2 µM) | > 16 | > 16 | – | –
3 | Cc1ccc(-c2cn3c(O)c4ncn(COCCO)c4nc3n2)cc1 | 0.07 (≈ 0.206 µM) | 0.43 (≈ 1.27 µM) | 250 | 82 (≈ 242 µM) | 9.2 (≈ 27.1 µM) | > 40 | 0.2 (≈ 0.589 µM) | 0.93 (≈ 2.74 µM) | 0.07 (≈ 0.206 µM) | > 40 | 0.4 (≈ 1.18 µM) | – | –
4 | COc1ccc(-c2cn3c(O)c4ncn(COCCO)c4nc3n2)c(OC)c1 | 1.92 (≈ 4.98 µM) | 1.92 (≈ 4.98 µM) | 80 | 1.92 (≈ 4.98 µM) | > 16 | 16 (≈ 41.5 µM) | 1.92 (≈ 4.98 µM) | 3.2 (≈ 8.3 µM) | 1.92 (≈ 4.98 µM) | 16 (≈ 41.5 µM) | 1.92 (≈ 4.98 µM) | – | –
5 | Cc1nc2nc3c(ncn3COCCO[Si](C)(C)C(C)(C)C)c(O)n2c1C(c1ccccc1)(c1ccccc1)c1ccccc1 | – | > 10 | 40 | > 10 | > 10 | > 10 | – | > 10 | – | 2 (≈ 3.23 µM) | – | – | –
6 | O=c1c2ncn(COCCO)c2nc2n(Cc3ccccc3)c(-c3ccccc3)cn12 | – | > 100 | > 100 | > 100 | > 100 | > 100 | – | – | – | > 100 | – | > 100 µg/mL | –
7 | COc1ccc(-c2cn3c(O)c4ncn(COCCO)c4nc3n2)cc1 | 0.03 (≈ 0.0844 µM) | 0.1 (≈ 0.281 µM) | 150 | 21 (≈ 59.1 µM) | 5.9 (≈ 16.6 µM) | > 40 | 0.2 (≈ 0.563 µM) | 0.15 (≈ 0.422 µM) | 0.07 (≈ 0.197 µM) | > 40 | 0.2 (≈ 0.563 µM) | – | –
8 | COc1ccccc1-c1cn2c(O)c3ncn(COCCO)c3nc2n1 | 1.92 (≈ 5.4 µM) | 1.92 (≈ 5.4 µM) | 400 | 9.6 (≈ 27 µM) | > 80 | > 80 | 9.6 (≈ 27 µM) | 1.92 (≈ 5.4 µM) | 1.92 (≈ 5.4 µM) | > 80 | 9.6 (≈ 27 µM) | – | –
9 | OCCOCn1cnc2c(O)n3cc(-c4ccccc4)nc3nc21 | 0.2 (≈ 0.615 µM) | 0.4 (≈ 1.23 µM) | > 100 | > 70 | – | > 100 | 0.2 (≈ 0.615 µM) | 1.3 (≈ 4 µM) | 0.7 (≈ 2.15 µM) | > 100 | 0.7 (≈ 2.15 µM) | – | –
10 | Cc1c(-c2ccccc2)nc2nc3c(ncn3COC(CO)CO)c(O)n12 | 0.005 (≈ 0.0135 µM) | 0.02 (≈ 0.0541 µM) | > 400 | 0.02 (≈ 0.0541 µM) | 3.2 (≈ 8.66 µM) | > 240 | 0.005 (≈ 0.0135 µM) | 0.03 (≈ 0.0812 µM) | 0.005 (≈ 0.0135 µM) | > 400 | 0.02 (≈ 0.0541 µM) | – | –
11 | COc1ccc(-c2cn3c(O)c4ncn(COC(CO)CO)c4nc3n2)cc1 | 0.005 (≈ 0.013 µM) | 0.005 (≈ 0.013 µM) | > 80 | 0.04 (≈ 0.104 µM) | > 16 | > 80 | 0.08 (≈ 0.208 µM) | 0.03 (≈ 0.0778 µM) | 0.005 (≈ 0.013 µM) | > 80 | 0.02 (≈ 0.0519 µM) | – | –
12 | COc1ccc(OC)c(-c2cn3c(O)c4ncn(COCCO)c4nc3n2)c1 | 16 (≈ 41.5 µM) | 9.6 (≈ 24.9 µM) | 80 | > 16 | > 16 | > 16 | > 16 | 9.6 (≈ 24.9 µM) | 16 (≈ 41.5 µM) | > 16 | > 16 | – | –
13 | Cc1nc2nc3c(ncn3COCCO)c(O)n2c1C(c1ccccc1)(c1ccccc1)c1ccccc1 | > 16 | > 16 | 80 | > 16 | > 16 | > 16 | > 16 | > 16 | > 16 | > 16 | > 16 | – | –
14 | OCC(CO)OCn1cnc2c(O)n3ccnc3nc21 | 0.7 (≈ 2.51 µM) | 0.7 (≈ 2.51 µM) | 400 | – | 400 (≈ 1430 µM) | – | 2 (≈ 7.16 µM) | 2 (≈ 7.16 µM) | 0.7 (≈ 2.51 µM) | 400 (≈ 1430 µM) | 0.7 (≈ 2.51 µM) | – | –
15 | OCCOCn1cnc2c(O)n3ccnc3nc21 | 20 (≈ 80.2 µM) | 20 (≈ 80.2 µM) | 400 | – | 400 (≈ 1600 µM) | – | 70 (≈ 281 µM) | 20 (≈ 80.2 µM) | – | 400 (≈ 1600 µM) | 10 (≈ 40.1 µM) | – | 4
16 | OCCOCn1cnc2c(O)n3c(-c4ccc(C(c5ccccc5)c5ccccc5)cc4)c(-c4ccccc4)nc3nc21 | > 16 | > 16 | 80 | > 16 | > 16 | > 16 | > 16 | > 16 | > 16 | > 16 | > 16 | – | –
17 | OCCOCn1cnc2c(O)n3c(C(c4ccccc4)(c4ccccc4)c4ccccc4)cnc3nc21 | > 16 | > 16 | 80 | > 16 | > 16 | > 16 | > 16 | > 16 | > 16 | > 16 | > 16 | – | –
18 | COc1ccc(-c2nc3nc4c(ncn4COCCO)c(O)n3c2-c2ccc(C(c3ccccc3)c3ccccc3)cc2)cc1 | > 16 | > 16 | 80 | > 16 | > 16 | > 16 | > 16 | – | > 16 | > 16 | > 16 | >16 pug ml-1 | –
19 | CC(=O)OCCOCn1cnc2c(O)n3cc(-c4ccc5ccccc5c4)nc3nc21 | > 16 | > 16 | > 80 | > 16 | > 16 | > 16 | > 16 | > 16 | > 16 | > 16 | > 16 | – | –
20 | CCc1cn2c(O)c3ncn(COCCO)c3nc2n1 | 9.6 (≈ 34.6 µM) | 1.92 (≈ 6.92 µM) | > 400 | 48 (≈ 173 µM) | 240 (≈ 866 µM) | > 400 | 9.6 (≈ 34.6 µM) | 9.6 (≈ 34.6 µM) | 9.6 (≈ 34.6 µM) | 240 (≈ 866 µM) | 9.6 (≈ 34.6 µM) | – | –
21 | OCC(CO)OCn1cnc2c(O)n3cc(-c4ccccc4)nc3nc21 | 0.005 (≈ 0.0141 µM) | 0.02 (≈ 0.0563 µM) | > 175 | 0.5 (≈ 1.41 µM) | – | > 175 | 0.02 (≈ 0.0563 µM) | 0.3 (≈ 0.844 µM) | 0.005 (≈ 0.0141 µM) | > 90 | 0.005 (≈ 0.0141 µM) | – | –
